From PMC11436757, “BRCA2 stabilises RAD51 and DMC1 nucleoprotein filaments through a conserved interaction mode” (Nature Communications, 2024)
Entries after “also recorded” stand apart in the source; their conditions may differ. No end group written: not given here.

How the values were obtained:
[1] = biological target: T1, DMC1 ΔN (Homo sapiens, UniProt Q14565); test: Amylose pull-down of DMC1 ΔN with MBP-BRCA2 fusions; assay type: binding; details: recombinant co-expression with MBP-BRCA2 fusion
T1 construct: DMC1 ΔN (83-340) were cloned into pHAT4; His6 (TEV-cleavable) (N, cleaved yes); made in house; host or cells: E. coli BL21 (DE3)
T1 sequence (Q14565 83-340): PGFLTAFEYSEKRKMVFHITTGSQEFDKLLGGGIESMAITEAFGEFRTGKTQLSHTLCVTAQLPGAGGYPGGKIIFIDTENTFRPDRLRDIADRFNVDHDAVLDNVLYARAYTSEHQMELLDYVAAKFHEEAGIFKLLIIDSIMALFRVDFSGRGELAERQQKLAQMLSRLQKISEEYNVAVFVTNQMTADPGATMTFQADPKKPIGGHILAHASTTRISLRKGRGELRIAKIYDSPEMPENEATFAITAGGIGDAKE
Source text: (§1) For affinity pulldown experiments, MBP-fusions of BRCA2 fragments (Ex14, amino-acids 2387-2420, Ex14-Tr, amino acids 2401-2414, Ex27, amino acids 3270-3315, BRC4, amino acids 1519-1551) were cloned into pMAT11 vectors[54] and co-expressed with DMC1 ΔN, DMC1 ΔN loop mutant (in which DMC1 amino acids 147-GAGGYPG-153 and 178-NVDHDA-183 were replaced by the cognate sequences of RAD51 148-IDRGGGE-154 and 179-GLSGSD-184), RAD51 ΔN, RAD51 ΔN loop mutant (the reverse switch of DMC1 ΔN loop mutant), and RAD51. MBP-fusions and complexes were purified through amylose affinity chromatography.

[2] = system: RAD51 ΔN; test: Amylose pull-down of RAD51 ΔN with MBP-BRCA2 fusions; assay type: binding; details: recombinant co-expression with MBP-BRCA2 fusion
Source text: as §1

[3] = biological target: T2, DMC1 ΔN loop mutant (Homo sapiens, UniProt Q14565, A148D/A183D/D180S/D182S/G147I/G149R/G153E/H181G/N178G/P152G/V179L/Y151G); test: Amylose pull-down of DMC1 ΔN loop mutant with MBP-BRCA2 fusions; assay type: binding; details: recombinant co-expression with MBP-BRCA2 fusion
T2 construct: DMC1 ΔN (83-340) were cloned into pHAT4; made in house
T2 sequence (Q14565 83-340 G147I/A148D/G149R/Y151G/P152G/G153E/N178G/V179L/D180S/H181G/D182S/A183D limits assumed): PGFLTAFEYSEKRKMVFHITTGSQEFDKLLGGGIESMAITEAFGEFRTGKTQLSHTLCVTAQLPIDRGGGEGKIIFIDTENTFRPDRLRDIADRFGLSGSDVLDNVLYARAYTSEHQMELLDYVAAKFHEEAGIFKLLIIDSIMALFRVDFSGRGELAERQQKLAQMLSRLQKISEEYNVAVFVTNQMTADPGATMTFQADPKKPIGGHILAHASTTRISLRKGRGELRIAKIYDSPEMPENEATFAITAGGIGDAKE
Source text: as §1

[4] = system: RAD51 ΔN loop mutant; test: Amylose pull-down of RAD51 loop mutant with MBP-BRCA2 fusions; details: RAD51 with DMC1's PhePP-binding loops; MBP-BRCA2 fusion
Source text: as §1

[5] = biological target: T1, DMC1 ΔN; test: Microscale thermophoresis (MST), BRCA2 peptides and DMC1 ΔN; assay type: binding; details: for Kd: MST from initial fluorescence, labelled DMC1 ΔN 150 nM, 10 mM HEPES pH 8.0, 150 mM NaCl, 0.05 % Tween-20, ~22 °C, mean, n = 3 independent experiments
Procedure: DMC1 ΔN and DMC1 ΔN loop mutant were labelled in 10 mM HEPES pH 8.0, 150 mM NaCl with an amine reactive fluorescent dye (MonolithTM Protein Labelling Kit BLUE-NHS, Nanotemper GmbH). A serial dilution of titrant (peptide) was prepared in 10 mM HEPES pH 8.0, 150 mM NaCl, 0.05 % Tween-20. The concentration of labelled DMC1 ΔN or DMC1 ΔN loop mutant were constant at 150 nM and the concentration of the interacting peptide was titrated in 1:1 dilutions starting from 750 µM. An equal volume (10 µl) of the serial dilution and of the diluted labelled DMC1 were mixed and loaded in glass capillaries (MonolithTM NT.115 MST Premium Coated Capillaries, Nanotemper GmbH). The initial fluorescence and the thermophoretic mobility were measured on a Monolith NT.115 system (NanoTemper Technologies). The excitation power was 45 % and MST power was 60 % at room temperature (~22 °C). Laser on and off times were set at 5 and 30 seconds, respectively. Data analysis was performed with NT Affinity Analysis software.
As a change in initial fluorescence was detected, SDS denaturation (SD) tests were performed according to the manufacturer’s instructions to determine whether these changes were ligand-induced and whether the data could therefore be used to derive affinity measurements. Briefly, 7 µl of the samples containing the three highest and three lowest concentrations of peptide were mixed with 7 µl of denaturation buffer (4 % SDS, 40 mM DTT). After incubating each for 5 minutes at 95 °C to denature the proteins and subject to brief centrifugation, the samples were loaded onto Premium Coated Capillaries and their initial fluorescence measurements recorded. […] Initial fluorescence readings were used to derive binding affinities.

binding in pull-down [1] | binding in pull-down [4] | Kd [5] | affinity of Ex14 relative to Ex27 ([5]; MST, DMC1 ΔN) | Substance | binding in pull-down [2] | binding in pull-down [3]
bind | failed to | 30.4 µM | over threefold higher affinity than Ex27 | ATRNEKMRHLITTGRPTKVFVPPFKTKSHFHRVE [Ex14] | binds selectively to BRCA2 Ex27 rather than Ex14 | abolished its ability to bind Ex14; also recorded: blocked Ex14-
not | failed to | > 96.2 µM |  | Ex27: BRCA2 exon 27 PhePP peptide, amino acids 3270-3315 (ALDFLSRLPLPPPVSPICTFVSPAAQKAFQPPRSCGTKYETPIKKK; UniProt P51587 3270-3315, looked up, fragment) | binds selectively | failed to bind; also recorded: failed to interact with Ex27
